Measurements published in publication PMC8443589, “Modelling human liver fibrosis in the context of non-alcoholic steatohepatitis using a microphysiological system” (Communications Biology, 2021).
Values joined by “and” are separate entries in the source; they are usually repeats but may differ in a detail not shown here. Equal values may be shown once.

How the values were obtained:
[1] = test system: liver MPS NASH model + TGFβ (PHH, KC and HSC co-cultures, high fat); assay: Quantitative confocal imaging of collagen-1 and α-SMA in liver MPS NASH model with TGFβ (Fig 6c); type: cell-based, human; conditions: for Collagen 1 - fluroscence intensity / aSMA - fluroscence intensity: NASH + TGF, individual replicates, listed as OCA
Description: (§1) The systems biology approach identified TGFβ to be a key driver in creating a more advanced NASH phenotype in the MPS model, with enhanced fibrotic markers and reduced liver function. […] Therefore, we explored how effective pharmacological intervention would be for NASH microtissues with high NPC numbers supplemented with TGFβ and exposed them to varying concentrations of OCA and ELF QD as previously described (Supp. Fig. 6a). […] OCA had the greatest effect on IL-1Rα whereas ELF had the greatest effect on MCP-1 reflecting the fact that while both candidate drugs have anti-inflammatory properties, but their mechanisms of action are different. […] Finally, we used our quantitative fibrosis imaging assay to assess the effect of each candidate drug on collagen-1 deposition and α-SMA expression (Fig. 6c). […] Both candidate drugs caused a significant reduction in collagen-1 deposition and α-SMA expression, with the highest concentrations of OCA and ELF causing an 80% reduction in α-SMA expression and a 75% reduction in collagen-1 deposition (Fig. 6c).
(§2) Fig. 6 Using enhanced liver MPS NASH model with TGFβ, Obeticholic acid and Elafibranor modulate disease phenotype to a greater extent than in standard NASH model. PHH, KC and HSC co-cultures were cultured in the MPS platform under high-fat conditions and dosed with varying concentrations of Obeticholic acid (OCA) and Elafibranor (ELF) QD or vehicle control for 10 days, following an initial 4-day pre-culture phase. Throughout the compound dosing period TGFβ was also dosed onto all microtissues (NASH only vehicle control samples were also included in the study for comparison, which were not treated with TGFβ or dosed with any compound). a The secreted cytokine profile from treated liver microtissues was compared to determine the effects of each compound on the inflammatory profile of the liver with samples analysed at day 8 and 14 of the culture. Data were normalised by Z-transformation to allow comparison of all analytes (white = undetected). b The expression of fibrosis-associated biomarkers was analysed on day 14 media samples and compared to NASH + TGFβ control samples. c Liver microtissues were stained for collagen-type I, α-SMA, nuclei (DAPI), phalloidin (green) and imaged by confocal microscopy. Representative images are shown and scale bars 200 µm. Staining of microtissues was quantified by measuring total fluorescence intensity throughout individual microtissues, each data point represents an average of all microtissues per MPS culture (min 8, max 20). All datapoints shown with error bars highlighting means ± SD, all data from a minimum of three independent cultures: all comparisons were made to NASH + TGFβ control samples.
To visualise fibrosis proteins in the liver microtissues, scaffolds were fixed for 15 min in 4% paraformaldehyde following culture in the MPS platform. They were permeabilized with 0.1% Triton-X and blocked with 2% BSA before staining overnight at 4 °C with antibodies against alpha SMA (Abcam, UK - ab7817) and collagen 1 (Rockland, USA—600 401 103 0.5). Scaffolds were then stained with fluorescently conjugated secondary antibodies (Alexa-Fluor 555 goat anti-rabbit #A21429; Alexa-Fluor 647 donkey anti-rabbit #A31573; Alexa-Fluor 555 goat anti-mouse #A21424; Alexa-Fluor 647 goat anti-mouse #A21235 (Thermofisher, UK) along with Phalloidin 488 (Thermofisher, UK) and Hoechst 33342 (Invitrogen) for 1.5 h at room temperature. Scaffolds were washed three times with PBS and mounted onto glass microscope slides with anti-fade mounting medium. Confocal fluorescent images of the stained scaffolds were captured using a Cell Voyager 7000 (CV700, Yokogawa Inc.) automated confocal microscope. Image acquisition was controlled using the SearchFirst functionality of the Wako Software suite (Fujifilm Wako Automation). A workflow was designed to automatically locate and acquire images of each scaffold in a consistent and unbiased manner (Supp. Fig. 1). […]

[2] = test system: liver MPS NASH model + TGFβ (PHH, KC and HSC co-cultures, high fat); assay: Secreted cytokine profile of enhanced liver MPS NASH model with TGFβ dosed with OCA or ELF (Fig 6a); type: cell-based, human; conditions: for IL-1RA production, fold change compared to control / IL-4 production, fold change compared to control / IL-6 production, fold change compared to control / IL-8 production, fold change compared to control / IP-10 production, fold change compared to control / MCP-1 production, fold change compared to control / MIP-1a production, fold change compared to control / MIP-1b production, fold change compared to control / VEGF production, fold change compared to control: vs NASH + TGFβ control
Description: as §1, §2
Cytokine profiles in cell culture medium samples were also analysed by Luminex array for determination of 38 analytes in total, consisting of cytokines, chemokines, and growth factors using the MILLIPLEX MAP Human Cytokine/Chemokine Magnetic Bead Panel - Premixed 38 Plex (Merck Millipore, USA).
Liver microtissues were cultured for 4 days in HEP-FAT medium, before dosing with obeticholic acid or elafibranor. Both compounds were dissolved in DMSO, diluted in cell culture medium (final DMSO concentration ≤1%) and added to microtissues during a full medium change every two days and in addition on the intervening days compounds were spiked into the media to increase drug concentration back to desired concentrations. Cultures were maintained in the presence of the compound, for a total of 10 days in the presence or absence of TGFβ.

[3] = Non-specific compound binding: drug recovery in blank liver MPS plates (no cells), LC-MS; type: in vitro ADME; conditions: blank liver MPS platform/plates, vs input media, read-out: Drug recovery incubation in blank MPS platform (no cells)
[4] = NASH + TGFβ, highest concentrations

## TGFβ: recombinant TGF beta 1 protein (Abcam), 1 ng/ml cue
[1]; NASH microtissues, high NPC
  collagen-1 and α-SMA signal, fat and TGFβ compared to just fat alone: significant increase

## CC[C@H]1[C@@H](O)[C@@H]2[C@H](CC[C@]3(C)[C@@H]([C@H](C)CCC(=O)O)CC[C@@H]23)[C@@]2(C)CC[C@@H](O)C[C@@H]12 [Obeticholic acid]
[1]; 0.25 uM
  Collagen 1 - fluroscence intensity: 1951.11 and 3372.52 and 2271.93
  aSMA - fluroscence intensity: 697.585 and 1188.53 and 484.974
[1]; 5 uM
  Collagen 1 - fluroscence intensity: 1987.74 and 1316.74 and 1611.55
  aSMA - fluroscence intensity: 480.346 and 350.765 and 416.589
[1]; 12.5 uM
  Collagen 1 - fluroscence intensity: 1674.28 and 412.802 and 1126.69
  aSMA - fluroscence intensity: 287.458 and 39.7737 and 104.277
[1]; [4]
  reduction in collagen-1 deposition: 75%
  reduction in α-SMA expression: 80%
[2]; 0.25 µM, Day 8
  IL-1RA production, fold change compared to control: 1.08 fold change
  IL-4 production, fold change compared to control: 1.009 fold change
  IL-6 production, fold change compared to control: 1.014 fold change
  IL-8 production, fold change compared to control: 1.005 fold change
  IP-10 production, fold change compared to control: 1.251 fold change
  MCP-1 production, fold change compared to control: 1.076 fold change
  MIP-1a production, fold change compared to control: 0.8432 fold change
  MIP-1b production, fold change compared to control: 0.7821 fold change
  VEGF production, fold change compared to control: 1.067 fold change
[2]; 0.25 µM, Day 14
  IL-1RA production, fold change compared to control: 0.5028 fold change
  IL-4 production, fold change compared to control: 0.8171 fold change
  IL-6 production, fold change compared to control: 0.4566 fold change
  IL-8 production, fold change compared to control: 0.6873 fold change
  IP-10 production, fold change compared to control: 1.095 fold change
  MCP-1 production, fold change compared to control: 0.7086 fold change
  MIP-1a production, fold change compared to control: 0.8386 fold change
  VEGF production, fold change compared to control: 1.001 fold change
[2]; 5 µM, Day 8
  IL-1RA production, fold change compared to control: 0.6972 fold change
  IL-4 production, fold change compared to control: 1.1399 fold change
  IL-6 production, fold change compared to control: 1.2962 fold change
  IL-8 production, fold change compared to control: 1.283 fold change
  IP-10 production, fold change compared to control: 1.04 fold change
  MCP-1 production, fold change compared to control: 0.9329 fold change
  MIP-1a production, fold change compared to control: 0.9021 fold change
  MIP-1b production, fold change compared to control: 0.7383 fold change
  VEGF production, fold change compared to control: 1.4206 fold change
[2]; 5 µM, Day 14
  IL-1RA production, fold change compared to control: 0.2072 fold change
  IL-4 production, fold change compared to control: 1.048 fold change
  IL-6 production, fold change compared to control: 0.937 fold change
  IL-8 production, fold change compared to control: 0.8309 fold change
  IP-10 production, fold change compared to control: 1.661 fold change
  MCP-1 production, fold change compared to control: 0.6601 fold change
  MIP-1a production, fold change compared to control: 1.231 fold change
  MIP-1b production, fold change compared to control: 1.514 fold change
  VEGF production, fold change compared to control: 2.374 fold change
[2]; 12.5 µM, Day 8
  IL-1RA production, fold change compared to control: 0.3318 fold change
  IL-4 production, fold change compared to control: 0.7385 fold change
  IL-6 production, fold change compared to control: 0.7346 fold change
  IL-8 production, fold change compared to control: 0.6207 fold change
  IP-10 production, fold change compared to control: 1.145 fold change
  MCP-1 production, fold change compared to control: 0.4485 fold change
  MIP-1a production, fold change compared to control: 1.263 fold change
  MIP-1b production, fold change compared to control: 1.247 fold change
  VEGF production, fold change compared to control: 1.208 fold change
[2]; 12.5 µM, Day 14
  IL-1RA production, fold change compared to control: 0.02359 fold change
  IL-4 production, fold change compared to control: 0.2784 fold change
  IL-6 production, fold change compared to control: 0.3766 fold change
  IL-8 production, fold change compared to control: 0.4421 fold change
  IP-10 production, fold change compared to control: 0.932 fold change
  MCP-1 production, fold change compared to control: 0.2604 fold change
  MIP-1a production, fold change compared to control: 1.011 fold change
  MIP-1b production, fold change compared to control: 1.454 fold change
  VEGF production, fold change compared to control: 0.8682 fold change
[2]; NASH microtissues, high NPC, + TGFβ
  cytokine on which the drug had the greatest effect: IL-1Rα
[3]
  recovery at 1 µM: 110%
